The assay concerns the target T1, Recombinant human Protein-tyrosine phosphatase1B (PTP1B) (Homo sapiens, UniProt P18031).
T1 construct: Recombinant human Protein-tyrosine phosphatase1B (PTP1B) (amino acid 1-322 Biomol, USA); purchased Biomol, USA
T1 sequence (P18031 1-322): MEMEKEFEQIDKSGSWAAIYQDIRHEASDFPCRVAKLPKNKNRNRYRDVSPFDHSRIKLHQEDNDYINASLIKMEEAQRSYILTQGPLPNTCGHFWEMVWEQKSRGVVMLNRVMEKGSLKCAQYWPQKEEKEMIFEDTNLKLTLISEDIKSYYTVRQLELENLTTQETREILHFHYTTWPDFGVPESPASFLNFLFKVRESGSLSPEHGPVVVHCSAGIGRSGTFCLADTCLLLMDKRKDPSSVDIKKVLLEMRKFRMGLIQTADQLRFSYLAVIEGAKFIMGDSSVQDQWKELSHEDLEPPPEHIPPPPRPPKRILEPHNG
The assay is described as follows: PTP1B enzyme inhibition assay (pNpp substrate). It counts as biochemical. The following applies: inhibition of recombinant human PTP1B, pNpp 5 mM, 30 mins at 25° C; inhibitor concentration not given. As for the experimental part: Protein tyrosine phosphatase 1B (PTP1B) is an intracellular enzyme which functions by removing the phosphate groups from phosphorylated tyrosine residues of cellular proteins. PTP1B has been implicated as a negative regulator of insulin action and therefore is of therapeutic interest. The ability of the test compounds to inhibit the activity of PTP1B is determined using an enzyme inhibition assay.
The assay is performed using two independent substrates of PTP1B namely, p-nitrophenyl phosphate (pNpp) and the phosphorylated Epidermal growth factor receptor peptide (EGFR).
In the assay performed with pNpp, the action of PTP1B results in the release of p-nitrophenol, which is yellow in colour and can be measured at 410 nm. In the case of the assay using EGFR, action of PTP1B results in the release of free phosphate group. This is trapped using a reagent containing ammonium molybdate and malachite green resulting in a colored complex whose absorbance can be measured at 620 nm.
1× Assay buffer 50 mM HEPES (pH 7.4) • 1 mM EDTA • 1 mM DTT • 0.05% Igepal® CA-630
Dilute recombinant Human PTP1B 1:150 in 1× Assay buffer for 10× stock,
Prepare 10× stock of pNpp (50 mM) in 1× Assay buffer
Prepare 100× stock in 100% DMSO, dilute 1:10 with 1× Assay buffer to get 10× stock in 10% DMSO.
PTP1B inhibition assay was performed using recombinant human PTP1B. PTP1B (0.016 μg/well) was incubated in a buffer containing 50 mM HEPES, 1 mM DTT, 1 mM EDTA and 0.05% Igepal® CA-630 with or without inhibitor (10× stock, final DMSO concentration is 1%) for 30 mins at 25° C. This was followed by addition of p-Nitrophenyl phosphate (pNpp) substrate (5 mM). The final volume of the reaction mixture is 50 μL and experiment was done in 96 well half area plate. The incubation was continued for 30 mins at 25° C. The conversion of pNpp to p-Nitrophenol (pNp) was measured at 410 nm in Spectramaxplus Spectrophotometer (Molecular Devices, USA).

For `CNS(=O)(=O)Cc1ccc(NC2=NC(=O)C(=Cc3cn(CC(=O)O)c4ccccc34)S2)cc1` [Compound 44, {3-[2-(4-Methylsulfamoylmethyl-phenylamino)-4-oxo-4H-thiazol-5-ylidenemethyl]-indol-1-yl}-acetic acid], the “Activity Score” value is “(+) (+ = 10-20% inhibition)”.
The entry for `CCOc1ccc(-c2ccc(C=C3SC(Nc4ccc(CC(=O)NS(=O)(=O)c5ccc(C)cc5)cc4)=NC3=O)cc2)cc1.[Na]` [Compound 214, N-(2-{4-[5-(4′-Ethoxy-biphenyl-4-ylmethylene)-4-oxo-4,5-dihydro-thiazol-2-ylamino]-phenyl}-acetyl)-4-methyl-benzenesulfonamide sodium salt] is “(+++) (+++ = >50% inhibition)”.
The entry for `O=C(O)CCc1ccc(NC2=NC(=O)C(=Cc3cn(CC(=O)O)c4ccccc34)S2)cc1` [Compound 43, 3-{4-[5-(1-Carboxymethyl-1H-indo-3-ylmethylene)-4-oxo-4,5-dihydro-thiazol-2-ylamino]-phenyl}-propionic acid] is “(+++) (+++ = >50% inhibition)”; for `CC(C)Oc1cc2ccccc2cc1C=C1SC(Nc2ccc(CC(=O)O)cc2)=NC1=O` [Compound 10, {4-[5-(3-Isopropoxy-naphthalen-2-ylmethylene)-4-oxo-4,5-dihydro-thiazol-2-ylamino]-phenyl}-acetic acid] it is “(++) (++ = 20-50% inhibition)”; for `NS(=O)(=O)c1ccc(-c2ccc(C=C3SC(Nc4ccc(CC(=O)O)cc4)=NC3=O)cc2)cc1` [Compound 210, {4-[4-Oxo-5-(4′-sulfamoyl-biphenyl-4-ylmethylene)-4,5-dihydro-thiazol-2-ylamino]-phenyl}-acetic acid] it is “(+++) (+++ = >50% inhibition)”.
The same measure for `N#Cc1ccccc1-c1ccc(C=C2SC(Nc3ccc(CC(=O)O)cc3)=NC2=O)cc1` [Compound 17, {4-[5-(2′-Cyano-biphenyl-4-ylmethylene)-4-oxo-4,5-dihydro-thiazol-2-ylamino]-phenyl}-acetic acid]: “(++) (++ = 20-50% inhibition)”.
Regarding `Cc1cc(C=C2SC(Nc3nc(CC(=O)O)cs3)=NC2=O)nn1-c1ccccc1` [Compound 134, {2-[5-(5-Methyl-1-phenyl-1H-pyrazol-3-ylmethylene)-4-oxo-4,5-dihydro-thiazol-2-ylamino]-thiazol-4-yl}-acetic acid], the “Activity Score” value is recorded as “(++) (++ = 20-50% inhibition)”.
The entry for `O=C(Cc1ccc(NC2=NC(=O)C(=Cc3ccc(-c4ccccc4)cc3)S2)cc1)NS(=O)(=O)c1ccc(C(F)(F)F)cc1.[Na]` [Compound 219, N-{2-[4-(5-Biphenyl-4-ylmethylene-4-oxo-4,5-dihydro-thiazol-2-ylamino)-phenyl]-acetyl}-4-trifluoromethyl-benzenesulfonamide, sodium salt] is “(+++) (+++ = >50% inhibition)”; for `O=C(O)Cc1ccc(NC2=NC(=O)C(=Cc3ccc(-c4ccccc4)cc3)O2)cc1` [Compound 100, [4-(5-Biphenyl-4-ylmethylene-4-oxo-4,5-dihydro-oxazol-2-ylamino)-phenyl]-acetic acid] it is “(++) (++ = 20-50% inhibition)”; for `O=C(O)Cc1ccc(NC2=NC(=O)C(=Cc3ccc4ccccc4c3)S2)cc1` [Compound 1, [4-(5-Naphthalen-2-ylmethylene-4-oxo-4,5-dihydro-thiazol-2-ylamino)-phenyl]-acetic acid] it is “(+++) (+++ = >50% inhibition)”.
The entry for `Cc1ccc(S(=O)(=O)NC(=O)Cc2ccc(NC3=NC(=O)C(=Cc4ccc(-n5cnnn5)c(OCc5ccccc5)c4)S3)cc2)cc1.[Na]` [Compound 131, N-(2-{4-[5-(3-Benzyloxy-4-tetrazol-1-yl-benzylidene)-4-oxo-4,5-dihydro-thiazol-2-ylamino]-phenyl}-acetyl)-4-methyl-benzenesulfonamide sodium salt] is “(+++) (+++ = >50% inhibition)”.
Turning to `O=C(O)Cn1ccc2cc(NC3=NC(=O)C(=Cc4cc5ccccc5cc4OCc4ccccc4)S3)ccc21` [Compound 47, {5-[5-(3-Benzyloxy-naphthalen-2-ylmethylene)-4-oxo-4,5-dihydro-thiazol-2-ylamino]-indol-1-yl}-acetic acid], the “Activity Score” value is recorded as “(+++) (+++ = >50% inhibition)”.
In the case of `O=C(O)Cc1ccc(NC2=NC(=O)C(=Cc3c[nH]c4ccccc34)S2)cc1` [Compound 8, {4-[5-(1H-Indol-3-ylmethylene)-4-oxo-4,5-dihydro-thiazol-2-ylamino]-phenyl}-acetic acid], the “Activity Score” value was “(+) (+ = 10-20% inhibition)”.
The same measure for `O=C(O)Cc1ccc(NC2=NC(=O)C(=Cc3cc4ccccc4cc3OCc3ccccc3)S2)cc1` [Compound 3, {4-[5-(3-Benzyloxy-naphthalen-2-ylmethylene)-4-oxo-4,5-dihydro-thiazol-2-ylamino]-phenyl}-acetic acid]: “(+++) (+++ = >50% inhibition)”; for “[4-(N′-{4-Oxo-5-[4-(1H-tetrazol-5-yl)-benzylidene]-4,5-dihydro-thiazol-2-yl}-hydrazino)-phenyl]-acetic acid [Compound 34]”: “(+++) (+++ = >50% inhibition)”; for `O=C(O)Cc1ccc(NC2=NC(=O)C(=Cc3coc4ccccc4c3=O)S2)cc1` [Compound 71, {4-[4-oxo-5-(4-oxo-4H-chromen-3-ylmethylene)-4,5-dihydro-thiazol-2-ylamino]-phenyl}-acetic acid]: “(+++) (+++ = >50% inhibition)”.
Consider `O=C(O)Cc1ccc(NC2=NC(=O)C(=Cc3ccc(-c4ccccc4)cc3)S2)cc1` [Compound 9, [4-(5-Biphenyl-4-ylmethylene-4-oxo-4,5-dihydro-thiazol-2-ylamino)-phenyl]-acetic acid], for which the “Activity Score” value is reported as “(+++) (+++ = >50% inhibition)”.
The same measure for `O=C(O)Cc1ccc(NC2=NC(=O)C(=Cc3ccc(-n4cccc4)cc3)S2)cc1` [Compound 18, {4-[4-Oxo-5-(4-pyrrol-1-yl-benzylidene)-4,5-dihydro-thiazol-2-ylamino]-phenyl}-acetic acid]: “(+++) (+++ = >50% inhibition)”; for `O=C(O)Cc1cccc(NC2=NC(=O)C(=Cc3cc4ccccc4cc3OCc3ccccc3)S2)c1` [Compound 14, {3-[5-(3-Benzyloxy-naphthalen-2-ylmethylene)-4-oxo-4,5-dihydro-thiazol-2-ylamino]-phenyl}-acetic acid]: “(++) (++ = 20-50% inhibition)”.
Take `O=C(O)Cc1ccc(NC2=NC(=O)C(=Cc3cn(CC(=O)O)c4ccccc34)S2)cc1` [Compound 2, {4-[5-(1-Carboxymethyl-1H-indol-3-ylmethylene)-4-oxo-4,5-dihydro-thiazol-2-ylamino]-phenyl}-acetic acid]: the “Activity Score” value is given as “(+++) (+++ = >50% inhibition)”.
For “4-[5-(6-Ethoxy-naphthalen-2-ylmethylene)-4-oxo-4,5-dihydro-thiazol-2-ylamino]-phenyl}-sodium acetate [Compound 143]”, the “Activity Score” value is “(+++) (+++ = >50% inhibition)”.
The entry for `COc1cc2ccccc2cc1C=C1SC(Nc2ccc(CCC(=O)[O-])cc2)=NC1=O.[Na+]` [Compound 177, 3-{-4-[5-(3-Methoxy-naphthalen-2-ylmethylene)-4-oxo-4,5-dihydro-thiazol-2-ylamino]-phenyl}-sodium propionate] is “(+++) (+++ = >50% inhibition)”; for `O=C(O)Cc1ccc(NC2=NC(=O)C(=Cc3cccn3-c3ccc(Br)cc3)S2)cc1` [Compound 60, (4-{5-[1-(4-Bromo-phenyl)-1H-pyrrol-2-ylmethylene]-4-oxo-4,5-dihydro-thiazol-2-ylamino}-phenyl)-acetic acid] it is “(++) (++ = 20-50% inhibition)”; for `COc1c(C=C2SC(Nc3ccc(CC(=O)O)cc3)=NC2=O)ccc2ccccc12` [Compound 146, {4-[5-(1-Methoxy-naphthalen-2-ylmethylene)-4-oxo-4,5-dihydro-thiazol-2-ylamino]-phenyl}-acetic acid] it is “(+++) (+++ = >50% inhibition)”.
The entry for `CCC(C(=O)[O-])c1ccc(NC2=NC(=O)C(=Cc3cc4ccccc4cc3OCc3ccccc3)S2)cc1.[Na+]` [Compound 84, 2-{4-[L-(3-Benzyloxy-naphthalen-2-ylmethylene)-4-oxo-4,5-dihydro-thiazol-2-ylamino]-phenyl}-sodium butyrate] is “(+++) (+++ = >50% inhibition)”.

Source of the values: patent publication US20090088432A1, “Thiazolinones and Oxazolinones and their Use as Ptp1b Inhibitors” (priority 2005, published 2009).
